Test results from ChEMBL document CHEMBL4819080, “Cannabidiol-dihydroartemisinin conjugates for ameliorating neuroinflammation with reduced cytotoxicity” (Bioorg Med Chem, 2021).
Activity calls are given as the source filed them. No cut-off for these calls is given here.

Tests used:
BV-2 [1] = test: Inhibition of LPS-induced NF-kappaB activation in mouse BV-2 cells expressing luciferase gene at 5 to 100 uM incubated for 24 hrs by steady-glo luciferase assay; format: cell-based; conditions: dose 5-100 µM
BV-2 [2] = test: Antiinflammatory activity in mouse BV-2 cells assessed as reduction in LPS-induced nitric oxide production incubated for 24 hrs by 2, 3-diaminonaphthalene based assay; format: functional, cell-based
BV-2 [3] = test: Cytotoxicity against mouse BV-2 cells assessed as reduction in cell viability upto 200 uM incubated for 24 hrs by crystal violet dye based assay; conditions: bv-2, 24 h
BV-2 [4] = test: Antiinflammatory activity in mouse BV-2 cells assessed as reduction in LPS-induced iNOS mRNA expression incubated for 6 hrs by qRT-PCR analysis; format: functional, cell-based; conditions: dose 20-100 µM
BV-2 [5] = test: Antiinflammatory activity in mouse BV-2 cells assessed as reduction in LPS-induced IL-1beta mRNA expression incubated for 6 hrs by qRT-PCR analysis; format: functional, cell-based; conditions: dose 20-100 µM
BV-2 [6] = test: Inhibition of LPS-induced NF-kappaB activation in mouse BV-2 cells assessed as reduction in IRAK1 phosphorylation at 100 uM incubated for 1 hr by Western blot analysis; format: cell-based
BV-2 [7] = test: Inhibition of LPS-induced NF-kappaB activation in mouse BV-2 cells assessed as reduction in IKKalpha/beta phosphorylation at 100 uM incubated for 1 hr by Western blot analysis; format: cell-based
BV-2 [8] = test: Inhibition of LPS-induced NF-kappaB activation in mouse BV-2 cells assessed as reduction in NF-kappaB p65 phosphorylation at 100 uM incubated for 1 hr by Western blot analysis; format: cell-based
BV-2 [9] = test: Inhibition of LPS-induced MAPK activation in mouse BV-2 cells assessed as reduction in JNK phosphorylation at 100 uM incubated for 1 hr by Western blot analysis; format: cell-based
BV-2 [10] = test: Inhibition of LPS-induced MAPK activation in mouse BV-2 cells assessed as reduction in ERK phosphorylation at 100 uM incubated for 1 hr by Western blot analysis; format: cell-based
BV-2 [11] = test: Inhibition of LPS-induced MAPK activation in mouse BV-2 cells assessed as reduction in p38 phosphorylation at 100 uM incubated for 1 hr by Western blot analysis; format: cell-based
BV-2 [12] = test: Cytotoxicity against mouse BV-2 cells assessed as reduction in cell viability incubated for 24 hrs by crystal violet dye based assay; conditions: BV-2, 24 h
BV-2 [13] = test: Antiinflammatory activity in mouse BV-2 cells assessed as reduction in LPS-induced iNOS mRNA expression at 100 uM incubated for 6 hrs by qRT-PCR analysis; format: functional, cell-based
BV-2 [14] = test: Antiinflammatory activity in mouse BV-2 cells assessed as reduction in LPS-induced IL-1beta mRNA expression at 100 uM incubated for 6 hrs by qRT-PCR analysis; format: functional, cell-based
BV-2 [15] = test: Antiinflammatory activity in mouse BV-2 cells assessed as reduction in LPS-induced nitric oxide production incubated for 24 hrs in presence of DHA by 2, 3-diaminonaphthalene based assay; format: functional, cell-based
BV-2 [16] = test: Cytotoxicity against mouse BV-2 cells assessed as reduction in cell viability incubated for 24 hrs in presence of DHA by crystal violet dye based assay; conditions: bv-2, 24 h
[17] = Mus musculus, BV-2, 24 h, read-out: IC50

SMILES | inhibition (BV-2 [2]) | IC50 (BV-2 [2]; [17]) [µM] | Activity (BV-2 [3]) | IC50 (BV-2 [12]) [µM] | inhibition (BV-2 [13]) | inhibition (BV-2 [14]) | also measured
C=C(C)[C@@H]1CCC(C)=C[C@H]1c1c(O)cc(CCCCC)cc1OCCCO[C@H]1O[C@@H]2O[C@]3(C)CC[C@H]4[C@H](C)CC[C@@H]([C@H]1C)[C@@]24OO3 | Dose-Dependent Effect | 11.7 | Non-Toxic |  |  |  | inhibition (BV-2 [1]): Active; inhibition (BV-2 [4]): Dose-Dependent Effect; inhibition (BV-2 [5]): Dose-Dependent Effect; inhibition (BV-2 [6]): Active; inhibition (BV-2 [7]): Active; inhibition (BV-2 [8]): Active; inhibition (BV-2 [9]): inactive; inhibition (BV-2 [10]): inactive; inhibition (BV-2 [11]): inactive
C[C@H]1[C@@H](O)O[C@@H]2O[C@@]3(C)CC[C@H]4[C@H](C)CC[C@@H]1[C@@]24OO3 [ARTENIMOL] |  | 7.4 |  | 120 |  |  | 
C=C(C)[C@@H]1CCC(C)=C[C@H]1c1c(O)cc(CCCCC)cc1OCCO[C@H]1O[C@@H]2O[C@]3(C)CC[C@H]4[C@H](C)CC[C@@H]([C@H]1C)[C@@]24OO3 | Dose-Dependent Effect | 55 | Non-Toxic |  | inactive | inactive | 
C=C(C)[C@@H]1CCC(C)=C[C@H]1c1c(O)cc(CCCCC)cc1OCCCCO[C@H]1O[C@@H]2O[C@]3(C)CC[C@H]4[C@H](C)CC[C@@H]([C@H]1C)[C@@]24OO3 |  |  | Non-Toxic |  | inactive | inactive | IC50 (BV-2 [2]; bv-2): Not Active
C=C(C)[C@@H]1CCC(C)=C[C@H]1c1c(O)cc(CCCCC)cc1O [CANNABIDIOL] |  | 10.3 |  | 8 |  |  | inhibition (BV-2 [15]): Active; Activity (BV-2 [16]): Toxic
